# Experimental data taken from US4122184A, “Benzimidazole insecticides” (priority 1977, dated 1978).
# Read-outs that look alike come from different tables or passages of the source.
# Key:
# Two-spotted Spider Mite = Two-spotted Spider Mite test; assay type: in vivo, Tetranychus urticae (Acarina); conditions: 48 h
# Protocol: The procedure in this test is the same as that in the previous aphid test, except that about 100 two-spotted spider mites from a stock colony raised on squash plants are transferred to a cut squash cotyledon. The mortality is estimated 48 hours after spraying. The same rating scale is used.
# Milkweed Bug = Milkweed Bug Test; assay type: in vivo, Oncopeltis fasciatus (Hemiptera); conditions: 100 ppm, 48 h
# Protocol: Ten adult milkweed bugs are chilled and placed in a test cage. The cages containing the bugs are sprayed with 5 ml. of a test formulation containing a pre-determined amount of the insecticide, using a DeVilbiss atomizer at 10 psi held 33 inches from the top of the cage. After the cage has been allowed to dry, the bugs are fed and watered for 48 hours. A formulation containing 500 ppm of malathion is used as a reference standard and two unsprayed cages are kept as controls. Mortality counts are made 48 hours after spraying. Moribund adults are considered dead. The same rating scale is employed as before.
# Boll Weevil [1] = test: Boll Weevil Test; assay type: in vivo, Anthonomus grandis (Coleoptera); conditions: 48 h
# Excerpt: The procedure is identical to that employed for the Mexican bean beetle and the Southern armyworm, except that 10 adult boll weevils are placed on cotton leaves that have been dipped into formulations of the test compounds. The same rating scale is used.
# Alfalfa Weevil Larvae [2] = test: Field trial, stomach poison test; assay type: in vivo
# Protocol: (§1) Leaves from the infested plant are treated with different concentrations of the test compounds, either by spraying with a DeVilbiss Special Atomizer (5004) at 10 psi or by dipping the leaves in solutions containing the compound. The leaves are then allowed to air dry.
# (§2) After the leaves have dryed, they are placed in plastic petri dishes (100 × 25 mm), then the insects are counted out into each dish, five or ten insects per dish depending on the number of insects available. There are one or two replicates and usually two or three rates with each compound. Mortality results are taken at 24, 48 and 72 hours. The rating scale is 0 to 9.
# (§3) Using the above methods, field trials were carried out against species of 5 orders of insects. The results, which are summarized in the following tables, give the average mortality for the particular insect with a given benzimidazole for each concentration employed. […] These tables contain all results obtained during the summer trials.
# Meadow Spittlebug = test: Field trial, stomach poison test; assay type: in vivo
# Protocol: as §1, §2, §3
# [3] = test system: Potato Flea Beetle Adults; test: Field trial, stomach poison test; assay type: in vivo
# Protocol: as §1, §2, §3
# [4] = test system: Southern Corn Rootworm Adults; test: Field trial, stomach poison test; assay type: in vivo; set-up: key: mortality rating on a 0 to 9 scale
# Protocol: as §1, §2, §3
# [5] = test system: Striped Cucumber Beetle Adults; test: Field trial, stomach poison test; assay type: in vivo; set-up: key: mortality rating on a 0 to 9 scale
# Protocol: as §1, §2, §3
# [6] = test system: Tarnished Plant Bug Adults; test: Field trial, stomach poison test; assay type: in vivo; set-up: key: mortality rating on a 0 to 9 scale
# Protocol: as §1, §2, §3
# [7] = test system: Unidentified Green Leafhopper; test: Field trial, stomach poison test; assay type: in vivo; set-up: key: mortality rating on a 0 to 9 scale
# Protocol: as §1, §2, §3
# Squash Bug Adults = test: Field trial, contact poison test; assay type: in vivo; set-up: key: 0-9 rating: 0 = 0-10% mortality, 9 = 91-100% mortality
# Excerpt: (§4) Infested plants are placed in 6 oz. prescription bottles filled with water to keep them from wilting. Cellucotton is wrapped around the plant stem and squeezed into the bottle neck to prevent the insects from drowning.
# (§5) A DeVilbiss Special Atomizer (5004) is used at 10 psi to spray the test plant with different concentrations of compounds. The atomizer is held at arm's length to prevent blowing the insects off the host plant. After treating, the bottles are placed on a table covered with brown wrapping paper to catch the dead insects as they drop from the plant. The plants are spaced so the leaves or plants are not touching one another.
# (§6) The results are read at 24, 48, and 72 hours when applicable. The rating scale is 0 to 9 where 0 = 0-10 percent and 9 = 91-100 percent mortality.
# as §3
# Mosquito Larvae = test: Mosquito larvae test (dip test); assay type: in vivo, Aedes aegypti; conditions: 48 h
# Protocol: Aedes aegypti larvae 5 days old are allowed to feed on fresh food for at least 3 hours previous to being placed on test. Larvae are then removed from the rearing pans by pouring on a 20 mesh screen, washing with deionized water, and pooling in a 6-inch white enameled sauce pan.
# Twenty larvae are placed in a 1 oz. paper cup containing 25 ml. of deionized water.
# Test chemicals are dissolved in a suitable solvent and pipetted under the surface of 225 ml. of deionized water in one pint wide-mouthed Mason jar test containers and stirred. A cup containing 20 larvae in 25 ml. of water is then added. […]
# Results are determined 48 hours later by counting the dead and moribund larvae. […] Moribund larvae are those that are capable of limited, or poorly coordinated, locomotion in a sluggish manner.
# Live larvae respond normally and actively.
# Alfalfa Weevil Larvae [8] = test: Field trial, contact poison test; assay type: in vivo
# Excerpt: as §4, §5, §6, §3
# [9] = test system: Potato Flea Beetle Adults; test: Field trial, contact poison test; assay type: in vivo
# Excerpt: as §4, §5, §6, §3
# [10] = test system: Southern Corn Rootworm Adults; test: Field trial, contact poison test; assay type: in vivo
# Excerpt: as §4, §5, §6, §3
# Alfalfa Weevil Larvae [11] = test: Field trial, topical application; assay type: in vivo
# Protocol: as §6
# (§7) In a variation of the above test, 1 microliter of a test solution containing a predetermined number of micrograms of benzimidazole was applied directly to larvae or adult insects.
# as §3
# Yellow Mealworm Larvae = test: Field trial, topical application; assay type: in vivo; set-up: key: 0 = 0-10% mortality, 9 = 91-100% mortality (0-9 scale)
# Protocol: as §6, §7, §3
# Boll Weevil [12] = test: Field trial (first summer), topical; assay type: in vivo, Anthonomus grandis; conditions: .078125 μg/μl
# Protocol: as §7
# (§8) During the previous summer similar field trials were conducted employing the same tests as heretofore but with some additional species of insects not included in the later tests. The results listed below are for tests in which an insect mortality was established by a given application route and at a given concentration in a particular test. The same 0 - 9 scoring system is used as is the designation of compounds by alphabetical symbols.
# Mexican Bean Beetle = test: Field trial (first summer), topical; assay type: in vivo, Epilachna varivestis; conditions: .25 μg/μl
# Protocol: as §7, §8
# Confused Flour Beetle = test: Field trial (first summer), topical; assay type: in vivo; conditions: .078125 μg/μl
# Protocol: as §7, §8
# Southern armyworm larvae = conditions: 250 ppm; cited from earlier work
# milkweed bugs = conditions: 250 ppm; cited from earlier work
# oriental roaches = conditions: 250 ppm; cited from earlier work
# boll weevils = conditions: 250 ppm; cited from earlier work
# house flies = conditions: cited from earlier work
# Picnic Beetle [13] = test: Field trial (first summer), topical; assay type: in vivo; conditions: .078125 μg/μl
# Protocol: as §7, §8
# Buffalo Tree Hopper = test: Field trial (first summer), contact; assay type: in vivo; conditions: 125 ppm
# Excerpt: as §4, §5, §6, §8
# Differential Grasshopper = test: Field trial (first summer), contact; assay type: in vivo; conditions: 125 ppm
# Excerpt: as §4, §5, §6, §8
# Meadow Grasshopper = test: Field trial (first summer), contact; assay type: in vivo; conditions: 125 ppm
# Excerpt: as §4, §5, §6, §8
# Asparagus Beetles Adults [14] = test: Field trial, stomach poison test; assay type: in vivo
# Protocol: as §1, §2, §3
# Asparagus Beetles Adults [15] = test: Field trial, contact poison test; assay type: in vivo
# Excerpt: as §4, §5, §6, §3
# Picnic Beetle [16] = test: Field trial (first summer), stomach; assay type: in vivo; conditions: 250 ppm
# Protocol: as §1, §2, §8
# Milkweed Beetle = test: Field trial (first summer), contact; assay type: in vivo; conditions: 125 ppm
# Excerpt: as §4, §5, §6, §8
# Picnic Beetle [17] = test: Field trial (first summer), contact; assay type: in vivo; conditions: 250 ppm
# Excerpt: as §4, §5, §6, §8
smiles,measurement,setting,value
"O=[N+]([O-])c1cc(C(F)(F)F)cc2c1nc(C(F)(F)F)n2S(=O)(=O)c1ccccc1 [F, 2,6-bis(trifluoromethyl)-4-nitro-1-phenylsulfonylbenzimidazole]",mortality rating,Two-spotted Spider Mite; 1 ppm,6.3
same,mortality rating,Two-spotted Spider Mite; 5 ppm,7.5
same,mortality rating,Two-spotted Spider Mite; 10 ppm,6.8
same,mortality rating,Milkweed Bug,7.5
same,mortality rating,Boll Weevil [1]; 25 ppm,7.5
same,mortality rating,Boll Weevil [1]; 50 ppm,6.5
same,mortality rating,Boll Weevil [1]; 250 ppm,8.5
same,average mortality rating,Alfalfa Weevil Larvae [2]; 125 ppm,1
same,average mortality rating,Alfalfa Weevil Larvae [2]; 250 ppm,2
same,average mortality rating,Alfalfa Weevil Larvae [2]; 500 ppm,7
same,average mortality rating,Meadow Spittlebug; 10 ppm,0 (0-10 percent)
same,average mortality rating,Meadow Spittlebug; 25 ppm,1
same,average mortality rating,Meadow Spittlebug; 50 ppm,7
same,average mortality rating,[3]; 10 ppm,9 (91-100 percent mortality)
same,average mortality rating,[3]; 25 ppm,9 (91-100 percent mortality)
same,average mortality rating,[3]; 50 ppm,9 (91-100 percent mortality)
same,average mortality rating,[4]; 25 ppm,3
same,average mortality rating,[4]; 50 ppm,4
same,average mortality rating,[4]; 100 ppm,5
same,average mortality rating,[5]; 10 ppm,0 (0-10 percent)
same,average mortality rating,[5]; 25 ppm,3
same,average mortality rating,[5]; 50 ppm,3
same,average mortality rating,[6]; 10 ppm,4
same,average mortality rating,[6]; 25 ppm,4
same,average mortality rating,[6]; 50 ppm,2
same,average mortality rating,[7]; 10 ppm,1
same,average mortality rating,[7]; 25 ppm,1
same,average mortality rating,[7]; 50 ppm,7
same,average mortality rating,Squash Bug Adults; 125 ppm,0 (0-10 percent)
same,average mortality rating,Squash Bug Adults; 250 ppm,4
same,average mortality rating,Squash Bug Adults; 500 ppm,7
same,average mortality rating,Squash Bug Adults; 750 ppm,9 (91-100 percent mortality)
same,average mortality rating,Mosquito Larvae; 0.010 ppm,8 (85-90%)
same,average mortality rating,Mosquito Larvae; 0.025 ppm,5 (55-60%)
same,average mortality rating,Mosquito Larvae; 0.05 ppm,8 (85-90%)
same,average mortality rating,Mosquito Larvae; 0.1 ppm,9 (95-100%)
same,average mortality rating,Alfalfa Weevil Larvae [8]; 500 ppm,8
same,average mortality rating,Alfalfa Weevil Larvae [8]; 750 ppm,8
same,average mortality rating,Alfalfa Weevil Larvae [8]; 1000 ppm,8
same,average mortality rating,[9]; 10 ppm,8
same,average mortality rating,[9]; 25 ppm,8
same,average mortality rating,[9]; 50 ppm,9 (91-100 percent mortality)
same,average mortality rating,[10]; 25 ppm,2
same,average mortality rating,[10]; 50 ppm,5
same,average mortality rating,[10]; 100 ppm,9 (91-100 percent mortality)
same,average mortality rating,Alfalfa Weevil Larvae [11]; 0.03 μg/μl,1
same,average mortality rating,Alfalfa Weevil Larvae [11]; 0.07 μg/μl,1
same,average mortality rating,Alfalfa Weevil Larvae [11]; 0.1 μg/μl,3
same,average mortality rating,Yellow Mealworm Larvae; 0.03 μg/μl,2
same,average mortality rating,Yellow Mealworm Larvae; 0.07 μg/μl,3
same,average mortality rating,Yellow Mealworm Larvae; 0.15 μg/μl,5
same,insect mortality rating,Boll Weevil [12],9 (91-100 percent mortality)
same,insect mortality rating,Mexican Bean Beetle,9 (91-100 percent mortality)
same,insect mortality rating,Confused Flour Beetle,9 (91-100 percent mortality)
"FC(F)(F)c1nc2ccc(Cl)c(Cl)c2[nH]1 [2-trifluoromethyl-4,5-dichlorobenzimidazole]",insecticidal activity,Southern armyworm larvae,complete kill
same,insecticidal activity,milkweed bugs,without action
same,insecticidal activity,oriental roaches,without action
same,insecticidal activity,boll weevils,without action
same,insecticidal activity,house flies; 1000 ppm,excellent only at 1000 ppm
"FC(F)(F)c1nc2cc(Cl)c(Cl)cc2[nH]1 [2-trifluoromethyl-5,6-dichlorobenzimidazole]",insecticidal activity,Southern armyworm larvae,same excellent activity
same,insecticidal activity,milkweed bugs,no activity
same,insecticidal activity,oriental roaches,no activity
same,insecticidal activity,boll weevils,no activity
same,insecticidal activity,house flies; 250 ppm,no activity
"C=CCOC(=O)n1c(C(F)(F)F)nc2c([N+](=O)[O-])cc(C(F)(F)F)cc21 [K, allyl 2,6-bis(trifluoromethyl)-4-nitro-1-benzimidazolecarboxylate]",average mortality rating,Yellow Mealworm Larvae; 0.03 μg/μl,1
same,average mortality rating,Yellow Mealworm Larvae; 0.07 μg/μl,3
same,average mortality rating,Yellow Mealworm Larvae; 0.15 μg/μl,6
same,insect mortality rating,Boll Weevil [12],9 (91-100 percent mortality)
same,insect mortality rating,Mexican Bean Beetle,9 (91-100 percent mortality)
same,insect mortality rating,Confused Flour Beetle,9 (91-100 percent mortality)
same,insect mortality rating,Picnic Beetle [13],9 (91-100 percent mortality)
same,insect mortality rating,Buffalo Tree Hopper,9 (91-100 percent mortality)
same,insect mortality rating,Differential Grasshopper,9 (91-100 percent mortality)
same,insect mortality rating,Meadow Grasshopper,9 (91-100 percent mortality)
"CCN(CC)C(=O)n1c(SC(F)(F)F)nc2c([N+](=O)[O-])cc(SC(F)(F)F)cc21 [S, n,n-diethyl-4-nitro-2,6-bis(trifluoromethyl)thio-1-benzimidazolecarboxamide]",average mortality rating,Asparagus Beetles Adults [14]; 5 ppm,7
same,average mortality rating,Asparagus Beetles Adults [14]; 10 ppm,7
same,average mortality rating,Asparagus Beetles Adults [14]; 25 ppm,9 (91-100 percent mortality)
same,average mortality rating,[3]; 10 ppm,3
same,average mortality rating,[3]; 25 ppm,7
same,average mortality rating,[3]; 50 ppm,9 (91-100 percent mortality)
same,average mortality rating,[6]; 25 ppm,5
same,average mortality rating,[7]; 10 ppm,3
same,average mortality rating,[7]; 25 ppm,0 (0-10 percent)
same,average mortality rating,[7]; 50 ppm,0 (0-10 percent)
same,average mortality rating,Mosquito Larvae; 0.010 ppm,4 (45-50%)
same,average mortality rating,Mosquito Larvae; 0.025 ppm,5 (55-60%)
same,average mortality rating,Mosquito Larvae; 0.05 ppm,5 (55-60%)
same,average mortality rating,Mosquito Larvae; 0.1 ppm,9 (95-100%)
same,average mortality rating,Asparagus Beetles Adults [15]; 10 ppm,0 (0-10 percent)
same,average mortality rating,Asparagus Beetles Adults [15]; 25 ppm,8
same,average mortality rating,Asparagus Beetles Adults [15]; 50 ppm,5
same,average mortality rating,[9]; 10 ppm,5
same,average mortality rating,[9]; 25 ppm,8
same,average mortality rating,[9]; 50 ppm,9 (91-100 percent mortality)
same,average mortality rating,Yellow Mealworm Larvae; 0.03 μg/μl,2
same,average mortality rating,Yellow Mealworm Larvae; 0.07 μg/μl,4
same,average mortality rating,Yellow Mealworm Larvae; 0.15 μg/μl,4
same,insect mortality rating,Picnic Beetle [13],9 (91-100 percent mortality)
same,insect mortality rating,Picnic Beetle [16],9 (91-100 percent mortality)
same,insect mortality rating,Milkweed Beetle,9 (91-100 percent mortality)
same,insect mortality rating,Picnic Beetle [17],9 (91-100 percent mortality)
